Experiments:
[1] = system: bone marrow-derived myeloid dendritic cells (MDC) from RAG−/− mice; assay: DNA-PK inhibitor on CpG-ODN-induced cytokine production in MDC; type: cell-based, mouse; conditions: various concentrations of NU7026, with or without CpG-ODN
Experimental: Since deletion of the kinase domain of DNA-PKcs is responsible for the SCID phenotype, the role of DNA-PK in TLR9-mediated type-I IFN induction was investigated. To do so, bone marrow-derived myeloid dendritic cells (MDC) from RAG^−/− mice were incubated with various concentrations of NU7026, a DNA-PK inhibitor (Calbiochem, San Diego, Calif.), with or without CpG-ODN. […] In contrast, the activation of NF-κB, MAPK, IRF-3 and IRF-7 were similar in these cells (FIG. 2B), indicating a specific signaling blockade downstream to TLR9 in SCID but not in RAG^−/− BM-MDC.

DSS-induced colitis = DSS-induced colitis in mice (disease activity index, colonic MPO activity, histological score, mortality); type: in vivo, mouse; conditions: for DAI (disease activity index) / HS (histological score) / MPO (U/g): 1.5% DSS
Description: In a previous study the concentration of DSS was identified that was required to induce a similar severity of colitis in the different mouse strains used in this study (Rachmilewitz et al. (2004) Gastroenterology 126:520-528). Mice on the B6 background were given 1.5% (w/v) DSS, mice on the 129/SvEv background were given 4% DSS and mice on the Balb/c background were given 3.5% DSS dissolved in sterile, distilled water ad libitum for 7 days (Rachmilewitz et al. (2004) supra). […] The disease activity index (DAI; the combined score of weight loss and bleeding) was determined as described (Rachmilewitz et al. (2002) Gastroenterology 122:1428-144110; and Rachmilewitz et al. (2004) supra). Briefly, scores are defined as follows: Loss in body weight: 0=no loss; 1=5% to 10%; 2=10% to 15%; 3=15% to 20%; 4=over 20%. Hemoccult: 0=no blood; 2=positive; 4=gross blood.
The colon tissues were longitudinally opened and a 50 mg portion was homogenized in hexadecyltrimethyl-ammonium bromide (0.5%) in 50 mmol/L phosphate buffer, pH6.0. The homogenate was sonicated for 10 seconds, freeze-thawed 3 times, and centrifuged for 15 minutes. An aliquot of the supernatant was taken for determination of enzyme activity as described (Rachmilewitz et al. (2002) supra; and Rachmilewitz et al. (2004) supra).
After 7 days of DSS administration, mice were killed and the entire colon was excised, longitudinally opened, rolled onto a wooden stick, fixed with Bouin's Solution (Sigma, St. Louis, Mo.), and embedded in paraffin. Tissue sections (5 μm) were prepared, deparaffinized, and stained with hematoxylin and eosin. Histological scoring was performed in a blinded fashion. Colonic epithelial damage was scored as follows: 0=normal; 1=hyper-proliferation, irregular crypts, and goblet cell loss; 2=mild to moderate crypt loss (10-50%); 3=severe crypt loss (50-90%); 4=complete crypt loss, surface epithelium intact; 5=small to medium sized ulcer (<10 crypt widths); 6=large ulcer (≧10 crypt widths). Infiltration with inflammatory cells was scored separately for mucosa (0=normal, 1=mild, 2=modest, 3=severe), submucosa (0=normal, 1=mild to modest, 2=severe), and muscle/serosa (0=normal, 1=moderate to severe). Scores for epithelial damage and inflammatory cell infiltration were added, resulting in a total scoring range of 0-12.

[2] = RAG1−/− mice (B6), ODN 10 μg/animal s.c. once 2 h prior, day 7, mean±SEM
[3] = SCID mice (B6), ODN 10 μg/animal s.c. once 2 h prior, day 7, mean±SEM
[4] = Table 6: SCID mice (B6), 1000 U recombinant mIFN-β i.p. prior to and on days 2, 4, 6, day 7, mean±SEM

O=c1cc(N2CCOCC2)oc2c1ccc1ccccc12 [NU7026]
IFN-α/β production induced by CpG-ODN [1]: selectively inhibited IFN-α/β | IL-12 (p40) production induced by CpG-ODN [1]: without affecting IL-12 (p40) production

CpG-ODN-2: phosphodiester and phosphothioate-modified class A CpG-ODN, 5′-Ggtgcatcgatgca GGGGGg-3′; SEQ ID NO:05 (GGTGCATCGATGCAGGGGGG; DNA, linkages s1 o13 s5 (s phosphorothioate, o phosphodiester), methylation of C not given here)
DAI (disease activity index) (DSS-induced colitis; [2]): 1.9 ± 0.7^A | HS (histological score) (DSS-induced colitis; [2]): 5.0 ± 0.8^A | MPO (U/g) (DSS-induced colitis; [2]): 0.9 ± 0.2^A U/g | DAI (disease activity index) (DSS-induced colitis; [3]): 6.5 ± 0.6 | HS (histological score) (DSS-induced colitis; [3]): 9.8 ± 0.3 | MPO (U/g) (DSS-induced colitis; [3]): 1.3 ± 0.1 U/g

IFN-β: recombinant murine IFN-β from Chemicon International
disease activity and histological scores (in words) (DSS-induced colitis; DSS-treated SCID mice, recombinant mIFN-β): decreased the disease activity and the histological scores | DAI (disease activity index) (DSS-induced colitis; [4]): 4.6 ± 0.9^A | HS (histological score) (DSS-induced colitis; [4]): 6.8 ± 1.2^A | MPO (U/g) (DSS-induced colitis; [4]): 1.2 ± 0.1 U/g

From patent US7560436B2, “Methods of treating gastrointestinal inflammation” (The Regents of the University of California, priority 2005, dated 2009)
